Results from patent US10045532B2, “Synergistic herbicidal mixtures for glyphosate-resistant volunteer corn control” (Valent U.S.A., Corporation, priority 2015, dated 2018).
Counter-ions that a name gives are not always drawn.

Legend:
Type in all cases: in vivo
[1] = test system: glyphosate-resistant corn variety P1690; assay: Foliar spray of corn at V7 stage in outdoor replicated field plots, corn variety P1690 (Example 2, Table 2); settings: for percent control of glyphosate-resistant corn, 9 DAT / percent control of glyphosate-resistant corn, 16 DAT: variety P1690
Source text: (§1) Two varieties of corn were foliarly sprayed with mixtures of ethyl [3-[2-chloro-4-fluoro-5-(1-methyl-6-trifluoromethyl-2,4-dioxo-1,2,3,4-tetrahydropyrimidin-3-yl)phenoxy]-2-pyridyloxy]acetate and the potassium salt of glyphosate in outdoor replicated field plots. In addition, mixtures of ethyl [3-[2-chloro-4-fluoro-5-(1-methyl-6-trifluoromethyl-2,4-dioxo-1,2,3,4-tetrahydropyrimidin-3-yl)phenoxy]-2-pyridyloxy]acetate and glufosinate, and N,N′-dimethyl-4,4′-bipyridinium dichloride alone were foliarly sprayed. One corn variety was glyphosate-resistant and the other variety was both glyphosate and glufosinate resistant. The corn plants were at the V7 (plants with seven leaves with visible collars, about 30 to 40 inches tall) stage of development at the time of treatment. Roundup® PowerMax (available from Monsanto Company) was used as the source of the potassium salt of glyphosate. The adjuvant non-ionic surfactant was applied with ethyl [3-[2-chloro-4-fluoro-5-(1-methyl-6-trifluoromethyl-2,4-dioxo-1,2,3,4-tetrahydropyrimidin-3-yl)phenoxy]-2-pyridyloxy]acetate. The effects of the treatments were observed and recorded 9 and 16 days after the treatments (“9 DAT” and “16 DAT”, respectively).

[2] = test system: glyphosate-resistant and glufosinate-resistant corn variety 765-30; assay: Foliar spray of corn at V7 stage in outdoor replicated field plots, corn variety 765-30 (Example 2, Table 3); settings: for percent control of glyphosate-resistant and glufosinate-resistant corn, 9 DAT / percent control of glyphosate-resistant and glufosinate-resistant corn, 16 DAT: variety 765-30
Source text: as §1

[3] = test system: volunteer glyphosate-resistant corn; assay: Foliar spray of glyphosate-resistant corn at V4 stage in outdoor replicated field plots (Example 1)
Source text: Glyphosate-resistant corn was foliarly sprayed with mixtures of ethyl [3-[2-chloro-4-fluoro-5-(1-methyl-6-trifluoromethyl-2,4-dioxo-1,2,3,4-tetrahydropyrimidin-3-yl)phenoxy]-2-pyridyloxy]acetate and the potassium salt of glyphosate in outdoor replicated field plots. The corn was at the V4 (plants with four leaves with visible collars, about 6 to 8 inches tall) stage of development at the time of treatment. Roundup® PowerMax (available from Monsanto Company) was used as the source of the potassium salt of glyphosate. The adjuvant crop oil concentrate was applied with ethyl [3-[2-chloro-4-fluoro-5-(1-methyl-6-trifluoromethyl-2,4-dioxo-1,2,3,4-tetrahydropyrimidin-3-yl)phenoxy]-2-pyridyloxy]acetate. The effects of the treatments were observed and recorded 9 and 23 days after the treatments (“9 DAT” and “23 DAT”, respectively).

[4] = Treatment 15, 500 g active/hectare
[5] = Treatment 2, 1054 g active/hectare
[6] = Treatment 8, 1260 g active/hectare
[7] = Treatment 18, 840 g active/hectare
[8] = Treatment 3, 5.6 g active/hectare
[9] = Treatment 4, 10.1 g active/hectare
[10] = Treatment 5, 20.2 g active/hectare
[11] = Treatment 6, 30.3 g active/hectare
[12] = Treatment 7, 40.3 g active/hectare
[13] = Treatment 2, 1.25 g active/hectare
[14] = Treatment 3, 2.5 g active/hectare
[15] = Treatment 4, 5 g active/hectare
[16] = Treatment 5, 10 g active/hectare
[17] = Treatment 6, 20 g active/hectare
[18] = Treatment 7, 30 g active/hectare

With `CP(=O)(O)CCC(N)C(=O)O` (stereo not drawn) [Glufosinate, reference compound] the “percent control of glyphosate-resistant corn, 9 DAT” value [1, 4] was 92.7%, the “percent control of glyphosate-resistant corn, 16 DAT” value [1, 4] was 100% and the “percent control of glyphosate-resistant and glufosinate-resistant corn, 9 DAT” value [2, 4] was 3.8%. The “percent control of glyphosate-resistant and glufosinate-resistant corn, 16 DAT” value [2, 4] was 0%.
With `O=C(O)CNCP(=O)(O)O` [Glyphosate, potassium salt, reference compound] the “percent control of volunteer glyphosate-resistant corn, 9 DAT” value [3, 5] was 0%, the “percent control of volunteer glyphosate-resistant corn, 23 DAT” value (shortened to “percent control … 23 DAT”) [3, 5] was 0% and the “activity against glyphosate-resistant corn when applied alone” value (“activity” for short) ([3]; applied alone, Table 1) was “no activity”. For the same compound, the “percent control of glyphosate-resistant corn, 9 DAT” value [1, 6] was 0%, the “percent control of glyphosate-resistant corn, 16 DAT” value [1, 6] was 0% and the “activity” value ([1]; applied alone, Table 2, variety P1690) was “no activity”. For the same compound, the “percent control of glyphosate-resistant and glufosinate-resistant corn, 9 DAT” value [2, 6] was 0%, the “percent control of glyphosate-resistant and glufosinate-resistant corn, 16 DAT” value [2, 6] was 0% and the “activity” value ([2]; applied alone, Table 3, variety 765-30) was “no activity”.
In the case of `C[n+]1ccc(-c2cc[n+](C)cc2)cc1.[Cl-].[Cl-]` [N,N′-dimethyl-4,4′-bipyridinium dichloride, reference compound], the “percent control of glyphosate-resistant corn, 9 DAT” value [1, 7] is reported as 84%, the “percent control of glyphosate-resistant corn, 16 DAT” value [1, 7] is reported as 77.5% and the “percent control of glyphosate-resistant and glufosinate-resistant corn, 9 DAT” value [2, 7] is reported as 81.3%. For the same compound, the “percent control of glyphosate-resistant and glufosinate-resistant corn, 16 DAT” value [2, 7] was 92.5%.
In the case of `CCOC(=O)COc1ncccc1Oc1cc(-n2c(=O)cc(C(F)(F)F)n(C)c2=O)c(F)cc1Cl` [ethyl [3-[2-chloro-4-fluoro-5-(1-methyl-6-trifluoromethyl-2,4-dioxo-1,2,3,4-tetrahydropyrimidin-3-yl)phenoxy]-2-pyridyloxy]acetate], the “percent control of volunteer glyphosate-resistant corn, 9 DAT” value [3, 8] is reported as 68.78%, the “percent control … 23 DAT” value [3, 8] is reported as 6.7% and the “percent control of volunteer glyphosate-resistant corn, 9 DAT” value [3, 9] is reported as 95.75%. For the same compound, the “percent control … 23 DAT” value [3, 9] was 87.74%, the “percent control of volunteer glyphosate-resistant corn, 9 DAT” value [3, 10] was 99.89% and the “percent control … 23 DAT” value [3, 10] was 99.89%. For the same compound, the “percent control of volunteer glyphosate-resistant corn, 9 DAT” value [3, 11] was 100%, the “percent control … 23 DAT” value [3, 11] was 100% and the “percent control of volunteer glyphosate-resistant corn, 9 DAT” value [3, 12] was 100%. For the same compound, the “percent control … 23 DAT” value [3, 12] was 100%, the “percent control of glyphosate-resistant corn, 9 DAT” value [1, 13] was 16.15% and the “percent control of glyphosate-resistant corn, 16 DAT” value [1, 13] was 25%. For the same compound, the “percent control of glyphosate-resistant corn, 9 DAT” value [1, 14] was 49.78%, the “percent control of glyphosate-resistant corn, 16 DAT” value [1, 14] was 55% and the “percent control of glyphosate-resistant corn, 9 DAT” value [1, 15] was 44.48%. For the same compound, the “percent control of glyphosate-resistant corn, 16 DAT” value [1, 15] was 40%, the “percent control of glyphosate-resistant corn, 9 DAT” value [1, 16] was 57.6% and the “percent control of glyphosate-resistant corn, 16 DAT” value [1, 16] was 42.5%. The “percent control of glyphosate-resistant corn, 9 DAT” value [1, 17] was 81.8%, the “percent control of glyphosate-resistant corn, 16 DAT” value [1, 17] was 100% and the “percent control of glyphosate-resistant corn, 9 DAT” value [1, 18] was 95%. The “percent control of glyphosate-resistant corn, 16 DAT” value [1, 18] was 100%, the “percent control of glyphosate-resistant and glufosinate-resistant corn, 9 DAT” value [2, 13] was 16.15% and the “percent control of glyphosate-resistant and glufosinate-resistant corn, 16 DAT” value [2, 13] was 25%. The “percent control of glyphosate-resistant and glufosinate-resistant corn, 9 DAT” value [2, 14] was 49.78%, the “percent control of glyphosate-resistant and glufosinate-resistant corn, 16 DAT” value [2, 14] was 52.5% and the “percent control of glyphosate-resistant and glufosinate-resistant corn, 9 DAT” value [2, 15] was 42.3%. For the same compound, the “percent control of glyphosate-resistant and glufosinate-resistant corn, 16 DAT” value [2, 15] was 40%, the “percent control of glyphosate-resistant and glufosinate-resistant corn, 9 DAT” value [2, 16] was 57.6% and the “percent control of glyphosate-resistant and glufosinate-resistant corn, 16 DAT” value [2, 16] was 42.5%. For the same compound, the “percent control of glyphosate-resistant and glufosinate-resistant corn, 9 DAT” value [2, 17] was 81.8%, the “percent control of glyphosate-resistant and glufosinate-resistant corn, 16 DAT” value [2, 17] was 91.3% and the “percent control of glyphosate-resistant and glufosinate-resistant corn, 9 DAT” value [2, 18] was 95%. The “percent control of glyphosate-resistant and glufosinate-resistant corn, 16 DAT” value [2, 18] was 100%.
